Assay results taken from the supplement of paper PMC11061612.

What was measured:
[1] = compound: NC1(c2ccc(-c3nc4ccn5c(=O)[nH]nc5c4cc3-c3ccccc3)cc2)CCC1 [MK-2206]; conditions: max 10 µM
How it was run: (§1)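 In 1536-well plates, cancer cell lines in 7.5 μl DMEM/F12 or RPMI with 10% FBS spent 24 hours at 37°C and 5% CO2 and were then dosed for 72 hours with final DMSO typically 0.2%. Viability was read by CellTiter-Glo 2.0 luminescence and scaled between blank-well and DMSO-well means. The single-agent IC50 was fitted from dose responses using a logistic curve in a non-linear mixed effects model, and that logistic curve had two parameters.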

[2] = compound: COc1cc2ncnc(Nc3ccc(F)c(Cl)c3)c2cc1OCCCN1CCOCC1 [Gefitinib]; conditions: max 10 µM
How it was run: as §1

[3] = compound: C=CCn1c(=O)c2cnc(Nc3ccc(N4CCN(C)CC4)cc3)nc2n1-c1cccc(C(C)(C)O)n1 [AZD1775]; conditions: max 3 µM
How it was run: as §1

[4] = compound: C1CN(CCC1(C(=O)N[C@@H](CCO)C2=CC=C(C=C2)Cl)N)C3=NC=NC4=C3C=CN4 [Capivasertib]; conditions: max 10 µM
How it was run: as §1

[5] = compound: COc1cccc(OCCCN)c1-c1cc(Nc2cnc(C#N)cn2)n[nH]1 [Prexasertib]; conditions: max 1 µM
How it was run: as §1

[6] = compound: CC1=C(C(=CC=C1)Cl)NC(=O)C2=CN=C(S2)NC3=CC(=NC(=N3)C)N4CCN(CC4)CCO [Dasatinib]; conditions: max 2 µM
How it was run: as §1

[7] = compound: COc1cc(Nc2ncc3c(n2)-c2ccc(Cl)cc2C(c2c(F)cccc2OC)=NC3)ccc1C(=O)O [Alisertib]; conditions: max 10 µM
How it was run: as §1

[8] = compound: COc1cccc2c1C(=O)c1c(O)c3c(c(O)c1C2=O)C[C@@](O)(C(=O)CO)C[C@@H]3O[C@H]1C[C@H](N)[C@H](O)[C@H](C)O1 [Doxorubicin]; conditions: max 1 µM
How it was run: as §1

[9] = compound: Cc1c2c(nn1C)CSCc1cc(n(C)n1)CSc1cc(c3ccccc3c1)OCCCc1c(C(=O)O)n(C)c3c-2c(Cl)ccc13 [AZD5991]; conditions: max 1 µM
How it was run: as §1

[10] = compound: CC(=O)c1c(C)c2cnc(Nc3ccc(N4CCNCC4)cn3)nc2n(C2CCCC2)c1=O [Palbociclib]; conditions: max 10 µM
How it was run: as §1

[11] = compound: CC(C)n1c(=O)n(C)c2cnc3cc(F)c(-c4ccc(OCCCN5CCCCC5)nc4)cc3c21 [AZD1390]; conditions: max 0.3 µM
How it was run: as §1

[12] = compound: C[C@@H](Nc1cc(F)cc(F)c1)c1cc(C(=O)N(C)C)cc2c(=O)cc(N3CCOCC3)oc12 [AZD8186]; conditions: max 3 µM
How it was run: as §1

[13] = compound: CCN(CCO)CCCOc1ccc2c(Nc3cc(CC(=O)Nc4cccc(F)c4)[nH]n3)ncnc2c1 [AZD2811]; conditions: max 1 µM
How it was run: as §1

[14] = compound: C[C@@H]1COCCN1C2=NC(=NC(=C2)C3(CC3)[S@](=N)(=O)C)C4=C5C=CNC5=NC=C4 [AZD6738]; conditions: max 10 µM
How it was run: as §1

[15] = compound: CN(C)CCCOc1ccc(-c2ccc3ncc4c(c3c2)n(C2CCOCC2)c(=O)n4C)cn1 [AZD0156]; conditions: max 3 µM
How it was run: as §1

[16] = compound: Cc1nc(-c2cn3c(n2)-c2ccc(-c4cnn(C(C)(C)C(N)=O)c4)cc2OCC3)n(C(C)C)n1 [Taselisib]; conditions: max 10 µM
How it was run: as §1

[17] = compound: CC(=O)Nc1cccc(-n2c(=O)n(C3CC3)c(=O)c3c(Nc4ccc(I)cc4F)n(C)c(=O)c(C)c32)c1 [Trametinib]; conditions: max 1 µM
How it was run: as §1

[18] = compound: O=C(c1cc(Cc2n[nH]c(=O)c3ccccc23)ccc1F)N1CCN(C(=O)C2CC2)CC1 [Olaparib]; conditions: max 10 µM
How it was run: as §1

[19] = compound: C[C@@H](c1ccc2nccn2c1)n1nnc2ncc(-c3cnn(C)c3)nc21 [Savolitinib]; conditions: max 1 µM
How it was run: as §1

[20] = compound: CC1(C)CCC(CN2CCN(c3ccc(C(=O)NS(=O)(=O)c4ccc(NCC5CCOCC5)c([N+](=O)[O-])c4)c(Oc4cnc5[nH]ccc5c4)c3)CC2)=C(c2ccc(Cl)cc2)C1 [Venetoclax]; conditions: max 1 µM
How it was run: as §1

[21] = compound: CCc1c2c(nc3ccc(O)cc13)-c1cc3c(c(=O)n1C2)COC(=O)[C@]3(O)CC [SN-38]; conditions: max 0.3 µM
How it was run: as §1

[22] = compound: C[C@@H](Oc1cc(-c2cnn(C3CCNCC3)c2)cnc1N)c1c(Cl)ccc(F)c1Cl [Crizotinib]; conditions: max 10 µM
How it was run: as §1

[23] = compound: CN(CC[C@H](CSC1=CC=CC=C1)NC2=C(C=C(C=C2)S(=O)(=O)NC(=O)C3=CC=C(C=C3)N4CCC(CC4)[C@H](C5=CC=CC=C5C6=CC=C(C=C6)Cl)O)S(=O)(=O)C(F)(F)F)CCO [AZD4320]; conditions: max 1 µM
How it was run: as §1

[24] = compound: Cn1cnc2c(F)c(Nc3ccc(Br)cc3Cl)c(C(=O)NOCCO)cc21 [Selumetinib]; conditions: max 10 µM
How it was run: as §1

[25] = compound: CS(=O)(=O)CCNCc1ccc(-c2ccc3ncnc(Nc4ccc(OCc5cccc(F)c5)c(Cl)c4)c3c2)o1 [Lapatinib]; conditions: max 10 µM
How it was run: as §1

[26] = compound: COc1nnc2ccc(N3CCC(c4ccc(OCCN5CCN(C)C(=O)[C@H]5C)cc4)CC3)nn12 [AZD5153]; conditions: max 1 µM
How it was run: as §1

[27] = compound: Cc1cc2ncnn2cc1Nc1ncc2c(n1)n(C1CCOCC1)c(=O)n2C [AZD7648]; conditions: max 10 µM
How it was run: as §1

[28] = compound: CC1=CN2[C@@H](C1)C=NC3=CC(=C(C=C3C2=O)OC)OCCCCCOC4=C(C=C5C(=C4)N=C[C@@H]6CC(=CN6C5=O)C)OC [SG3199]; conditions: max 0.001 µM
How it was run: as §1

Cell Line	IC50, cell viability 72 h [1] [nM]	IC50, cell viability 72 h [2] [nM]	IC50, cell viability 72 h [3] [nM]	IC50, cell viability 72 h [4] [nM]	IC50, cell viability 72 h [5] [nM]	IC50, cell viability 72 h [6] [nM]	IC50, cell viability 72 h [7] [nM]	IC50, cell viability 72 h [8] [nM]	IC50, cell viability 72 h [9] [nM]	IC50, cell viability 72 h [10] [nM]	IC50, cell viability 72 h [11] [nM]	IC50, cell viability 72 h [12] [nM]	IC50, cell viability 72 h [13] [nM]	IC50, cell viability 72 h [14] [nM]	IC50, cell viability 72 h [15] [nM]	IC50, cell viability 72 h [16] [nM]	IC50, cell viability 72 h [17] [nM]	IC50, cell viability 72 h [18] [nM]	IC50, cell viability 72 h [19] [nM]	IC50, cell viability 72 h [20] [nM]	IC50, cell viability 72 h [21] [nM]	IC50, cell viability 72 h [22] [nM]	IC50, cell viability 72 h [23] [nM]	IC50, cell viability 72 h [24] [nM]	IC50, cell viability 72 h [25] [nM]	IC50, cell viability 72 h [26] [nM]	IC50, cell viability 72 h [27] [nM]	IC50, cell viability 72 h [28] [nM]
SKN-3 (Head and Neck Carcinoma)	> 10000	> 10000	1530	> 10000	380	> 2000	> 10000	> 1000	> 1000	> 10000	> 300	> 3000	> 1000	> 10000	> 3000	9180	> 1000	> 10000	> 1000	> 1000	251	> 10000	> 1000	> 10000	> 10000	> 1000	> 10000	> 1
MCF7 (Breast Carcinoma)	8680	> 10000	> 3000	8440	> 1000	> 2000	> 10000	> 1000	838	> 10000	> 300	> 3000	> 1000	6710	> 3000	1390	> 1000	> 10000	> 1000	> 1000	53.2	> 10000	> 1000	> 10000	> 10000	343	> 10000	> 1
HOP-92 (Non-Small Cell Lung Carcinoma)	> 10000	> 10000	> 3000	> 10000	134	> 2000	> 10000	> 1000	> 1000	> 10000	> 300	> 3000	> 1000	> 10000	> 3000	6710	139	> 10000	> 1000	> 1000	109	> 10000	140	> 10000	> 10000	> 1000	> 10000	> 1
PA-TU-8902 (Pancreatic Carcinoma)	> 10000	> 10000	> 3000	> 10000	693	> 2000	> 10000	> 1000	> 1000	> 10000	> 300	> 3000	> 1000	> 10000	> 3000	3550	> 1000	> 10000	> 1000	> 1000	> 300	> 10000	> 1000	> 10000	> 10000	> 1000	> 10000	> 1
HCC1143 (Breast Carcinoma)	> 10000	> 10000	1050	> 10000	19	> 2000	> 10000	> 1000	> 1000	> 10000	> 300	> 3000	> 1000	2870	> 3000	5950	> 1000	> 10000	> 1000	> 1000	237	> 10000	> 1000	> 10000	> 10000	> 1000	> 10000	> 1
HuO9 (Osteosarcoma)	8020	> 10000	307	> 10000	46.3	> 2000	5740	322	64.2	> 10000	> 300	> 3000	> 1000	1160	> 3000	511	> 1000	> 10000	> 1000	> 1000	3.15	7070	171	> 10000	> 10000	275	> 10000	> 1
U-118-MG (Low Grade Glioma)		> 10000	2740	8880	188	> 2000	> 10000	> 1000	> 1000	> 10000	> 300	> 3000	> 1000	> 10000	> 3000	6100	> 1000	> 10000	> 1000	> 1000	14.1	> 10000	> 1000	> 10000	> 10000	> 1000	> 10000	> 1
